Values after ≈ are worked out from the molar mass of the structure shown.
Experiments:
MCF7 [1] = experiment: Antiproliferative activity in human MCF7 cells after 72 hrs by MTT assay; assay type: functional, cell-based; conditions: MCF7, 72 h
HCT-116 [2] = experiment: Antiproliferative activity in human HCT116 cells after 72 hrs by MTT assay; assay type: functional, cell-based; conditions: HCT-116, 72 h
[3] = Aqueous solubility of the compound in water after 48 hrs by UV spectrophotometer; assay type: physicochemical
HepG2 [4] = experiment: Antiproliferative activity in human HepG2 cells after 72 hrs by MTT assay; assay type: functional, cell-based; conditions: HepG2, 72 h
A549 [5] = experiment: Antiproliferative activity in human A549 cells after 72 hrs by MTT assay; assay type: functional, cell-based; conditions: A549, 72 h
HCT-116 [6] = experiment: Potency index, ratio of 5-FU IC50 to compound IC50 for human HCT116 cells; assay type: functional
Bel-7402 [7] = experiment: Antiproliferative activity in human Bel7402 cells after 72 hrs by MTT assay; assay type: functional, cell-based; conditions: Bel-7402, 72 h
HepG2 [8] = experiment: Potency index, ratio of 5-FU IC50 to compound IC50 for human HepG2 cells; assay type: functional
Bel-7402 [9] = experiment: Antiproliferative activity in 5-FU resistant human Bel7402 cells after 72 hrs by MTT assay; assay type: functional, cell-based; conditions: Bel-7402, 72 h
HCT-116 [10] = experiment: Induction of apoptosis in human HCT116 cells assessed as downregulation of CDK1 protein level after 24 hrs by Western blot method; assay type: functional, cell-based
HCT-116 [11] = experiment: Induction of apoptosis in human HCT116 cells at 4 uM after 48 hrs by annexin V-FITC/propidium iodide staining-based flow cytometric method; assay type: functional
HCT-116 [12] = experiment: Induction of apoptosis in human HCT116 cells after 48 hrs by annexin V-FITC/propidium iodide staining-based flow cytometric method; assay type: functional, cell-based
HCT-116 [13] = experiment: Induction of apoptosis in human HCT116 cells assessed as downregulation of cyclin B protein level after 24 hrs by Western blot method; assay type: functional, cell-based
HCT-116 [14] = experiment: Cell cycle arrest in human HCT116 cells assessed as accumulation at G2/M phase after 24 hrs by propidium iodide staining-based flow cytometric analysis; assay type: functional
HCT-116 [15] = experiment: Cell cycle arrest in human HCT116 cells assessed as decrease in cell population at G0/G1 phase after 24 hrs by propidium iodide staining-based flow cytometric analysis; assay type: functional
HL-60 = experiment: Antiproliferative activity against human HL60 cells; assay type: functional, cell-based
[16] = Antiproliferative activity against human nasopharyngeal carcinoma cells; assay type: functional, cell-based; conditions: Nasopharyngeal carcinoma cell
SCC-4 = experiment: Antiproliferative activity against human SCC4 cells; assay type: functional, cell-based
MCF7 [17] = experiment: Antiproliferative activity against human MCF7 cells; assay type: functional, cell-based
HepG2 [18] = experiment: Antiproliferative activity against human HepG2 cells
Bel-7402 [19] = experiment: Antiproliferative activity against human Bel7402 cells after 24 to 72 hrs by MTT assay; assay type: functional, cell-based
SGC-7901 = experiment: Antiproliferative activity against human SGC7901 cells after 24 to 72 hrs by MTT assay; assay type: functional, cell-based
A549 [20] = experiment: Antiproliferative activity against human A549 cells

SMILES | IC50 (MCF7 [1]) [µM] | IC50 (HCT-116 [2]) [µM] | solubility at 48 h [3] [mg/mL] | IC50 (HepG2 [4]) [µM] | IC50 (A549 [5]) [µM] | further results
CN1CCN(CCCCOC(=O)c2cc(O)c3c(c2)C(=O)c2cccc(O)c2C3=O)CC1.Cl.Cl | 6.63 | 2.93 | 14.8 | 3.32 | 2.9 | –
CCN(CC)CCCOC(=O)c1cc(O)c2c(c1)C(=O)c1cccc(O)c1C2=O.Cl | 8.28 | 0.65 | 13.6 | 2.94 | 6.23 | –
CCN1CCN(CCCCCCOC(=O)c2cc(O)c3c(c2)C(=O)c2cccc(O)c2C3=O)CC1.Cl.Cl | 3.25 | 1.93 | 10.2 | 1.47 | 6.42 | –
Cl.O=C(OCCCCCCN1CCCCC1)c1cc(O)c2c(c1)C(=O)c1cccc(O)c1C2=O | 5.92 | 0.48 | 11 | 0.52 | 3.01 | Ratio IC50 (HCT-116 [6]): 5 - 18; IC50 (Bel-7402 [7]): 3.95 µM; Ratio IC50 (HepG2 [8]): 5 - 18; IC50 (Bel-7402 [9]): 5.95 µM
CCN(CC)CCCCCCOC(=O)c1cc(O)c2c(c1)C(=O)c1cccc(O)c1C2=O.Cl | 7.56 | 0.83 | 13.8 | 0.33 | 4.39 | Ratio IC50 (HCT-116 [6]): 5 - 18; IC50 (Bel-7402 [7]): 6.49 µM; Ratio IC50 (HepG2 [8]): 5 - 18; IC50 (Bel-7402 [9]): 7.31 µM
Cl.Cl.O=C(OCCCCCCN1CCN(CCO)CC1)c1cc(O)c2c(c1)C(=O)c1cccc(O)c1C2=O | 7.63 | 0.31 | 15.1 | 0.85 | 5.28 | Activity (HCT-116 [10]): Dose-dependent effect; Activity (HCT-116 [11]): 56.08%; Activity (HCT-116 [12]): Dose-dependent effect; Ratio IC50 (HCT-116 [6]): 5 - 18; Activity (HCT-116 [13]): Dose-dependent effect; IC50 (Bel-7402 [7]): 2.36 µM; Activity (HCT-116 [14]): Dose-dependent effect; Ratio IC50 (HepG2 [8]): 5 - 18; IC50 (Bel-7402 [9]): 4.48 µM; Activity (HCT-116 [15]): Dose-dependent effect
Cl.Cl.O=C(OCCCN1CCN(CCO)CC1)c1cc(O)c2c(c1)C(=O)c1cccc(O)c1C2=O | 8.86 | 0.71 | 12.2 | 4.02 | 7.11 | –
Cl.O=C(OCCCCCN1CCCCC1)c1cc(O)c2c(c1)C(=O)c1cccc(O)c1C2=O | 1.95 | 5.28 | 10.3 | 6.12 | 8.69 | –
CCN1CCN(CCCCCOC(=O)c2cc(O)c3c(c2)C(=O)c2cccc(O)c2C3=O)CC1.Cl.Cl | 0.42 | 2.39 | 10 | 2.86 | 6.78 | –
CN1CCN(CCCCCCOC(=O)c2cc(O)c3c(c2)C(=O)c2cccc(O)c2C3=O)CC1.Cl.Cl | 5.05 | 0.76 | 12.9 | 0.42 | 3.39 | –
Cl.O=C(OCCCCCCN1CCOCC1)c1cc(O)c2c(c1)C(=O)c1cccc(O)c1C2=O | 27.5 | 3.26 | 12.8 | 0.79 | 25.4 | –
Cl.O=C(OCCCCCN1CCOCC1)c1cc(O)c2c(c1)C(=O)c1cccc(O)c1C2=O | 9.85 | 8.73 | 12.3 | 6.03 | 10.8 | –
Cl.Cl.O=C(OCCCCN1CCN(CCO)CC1)c1cc(O)c2c(c1)C(=O)c1cccc(O)c1C2=O | 4 | 0.85 | 12 | 3.65 | 2.5 | –
Cl.O=C(OCCCCN1CCCCC1)c1cc(O)c2c(c1)C(=O)c1cccc(O)c1C2=O | 28.9 | 2.03 | 10.7 | 0.89 | 26.4 | –
CN1CCN(CCCOC(=O)c2cc(O)c3c(c2)C(=O)c2cccc(O)c2C3=O)CC1.Cl.Cl | 11.4 | 3.75 | 13.3 | 4.93 | 8.41 | –
O=c1[nH]cc(F)c(=O)[nH]1 [FLUOROURACIL] | 4.32 | 4.3 | – | 5.82 | 10.3 | IC50 (Bel-7402 [7]): 7.57 µM; IC50 (Bel-7402 [9]): 214 µM
Cl.O=C(OCCCN1CCCCC1)c1cc(O)c2c(c1)C(=O)c1cccc(O)c1C2=O | 7.74 | 0.77 | 11.3 | 3.44 | 5.41 | –
CCN1CCN(CCCCOC(=O)c2cc(O)c3c(c2)C(=O)c2cccc(O)c2C3=O)CC1.Cl.Cl | 5.23 | 1.88 | 10.5 | 2.51 | 8.56 | –
CCN(CC)CCCCOC(=O)c1cc(O)c2c(c1)C(=O)c1cccc(O)c1C2=O.Cl | 5.36 | 1.81 | 13 | 1.34 | 3.86 | –
CN1CCN(CCCCCOC(=O)c2cc(O)c3c(c2)C(=O)c2cccc(O)c2C3=O)CC1.Cl.Cl | 1.13 | 1.5 | 13.7 | 2.95 | 6.32 | –
CCN(CC)CCCCCOC(=O)c1cc(O)c2c(c1)C(=O)c1cccc(O)c1C2=O.Cl | 15.2 | 9.05 | 12.4 | 12.2 | 27.3 | –
CCN1CCN(CCCOC(=O)c2cc(O)c3c(c2)C(=O)c2cccc(O)c2C3=O)CC1.Cl.Cl | 3.59 | 3.97 | 10.1 | 1.36 | 7.62 | –
Cl.O=C(OCCCN1CCOCC1)c1cc(O)c2c(c1)C(=O)c1cccc(O)c1C2=O | 27.3 | 4.92 | 12.1 | 1.81 | 24.9 | –
O=C(O)c1cc(O)c2c(c1)C(=O)c1cccc(O)c1C2=O [RHEIN] | 106 | 116 | 0.0456 (≈ 160 µM) | 101 | 120 | IC50 (HL-60): 100 µM; IC50 [16]: 140 µM; IC50 (SCC-4): 58 µM; IC50 (MCF7 [17]): 130 µM; IC50 (HepG2 [18]): 710 µM; IC50 (Bel-7402 [7]): 120 µM; IC50 (Bel-7402 [19]): 110 µM; IC50 (Bel-7402 [9]): 136 µM; IC50 (SGC-7901): 150 µM; IC50 (A549 [20]): 80 µM
Cl.Cl.O=C(OCCCCCN1CCN(CCO)CC1)c1cc(O)c2c(c1)C(=O)c1cccc(O)c1C2=O | 0.95 | 0.55 | 12.2 | 2.51 | 5.21 | –
Cl.O=C(OCCCCN1CCOCC1)c1cc(O)c2c(c1)C(=O)c1cccc(O)c1C2=O | 24.4 | 3.29 | 11.7 | 6.23 | 21.4 | –

From ChEMBL document CHEMBL3994562 (Medchemcomm, 2016)
